Reference: US7807673B2, “2-pyrimidinyl pyrazolopyridine ErbB kinase inhibitors” (GlaxoSmithKline LLC, priority 2005, dated 2010)

Experiments:
[1] = biological target: T1, ErbB2 or EGFR; test: ErbB enzyme substrate phosphorylation assay (HTRF), Method B (enzyme pre-incubated with compound 1 hour); format: biochemical; details: Table 1, enzyme Method B: enzyme mix incubated with compound 1 hour at 20° C., reaction started with substrate mix; class over ErbB2 or EGFR
T1 construct: enzymes purified from a baculovirus expression system
Procedure, shortened: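 Baculovirus-expressed kinase (0.8 nM EGFR or 10 nM ErbB2 in enzyme mix) phosphorylated biotinylated Peptide C (0.8 µM in substrate mix) with 20 µM ATP in substrate mix, MOPS pH 7.5, MnCl2, 90 min at 20 °C. Method A started with enzyme; Method B pre-incubated enzyme with compound 1 h at 20 °C. HTRF read-out; IC50 from 12-point curve (0.00027–47.6 µM), reported as pIC50.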

[2] = system: BT474 and HN5 tumor cell lines; test: Methylene blue growth inhibition assay (cellular Method A); format: cell-based; details: Homo sapiens, BT-474 and HN5, 72 h; Table 2, Method A methylene blue, 3 days; class over BT474 and HN5;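 also: class counts the more potent of the two cell lines (BT474 or HN5)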
Description: (§1) Human breast (BT474) and head and neck (HN5) were cultured in low glucose DMEM (Life Technologies 12320-032) containing 10% fetal bovine serum (FBS). Human colon tumor cells (Colo205) were cultured in DMEM (Invitrogen, 10564) containing 10% FBS. The SV40 transformed human mammary epithelial cell line to HB4a was transfected with either human H-ras cDNA (HB4a r4.2) or the human c-ErbB2 cDNA (HB4a c5.2). The HB4a clones were cultured in RPMI containing 10% FBS, insulin ([…]), hydrocortisone ([…]), supplemented with the selection agent hygromycin B ([…]). All lines were grown in a humidified incubator at 37° C. in 95% air, 5% CO2. Cells were harvested using trypsin/EDTA, counted using a haemocytometer, and plated in 100 microliters of the appropriate media, at the following densities, in a 96-well tissue culture plate (Falcon 3075): BT474 10,000 cells/well, HN5 3,000 cells/well. The next day, compounds were diluted in DMEM containing […] gentamicin, at twice the final required concentration, from 10 mM stock solutions in DMSO. 100 microliters/well of these dilutions were added to the 100 microliters of media currently on the cell plates. Medium containing 0.6% DMSO was added to control wells. Compounds diluted in DMEM were added to all cell lines. The final concentration of DMSO in all wells was 0.3%. Cells were returned to the incubator (37° C., […]) for 3 days. Medium was then removed by aspiration. Cell biomass was estimated by staining cells with 90 microliters per well methylene blue (Sigma M9140, 0.5% in 1:1 ethanol:water), and incubation at rt for at least 30 minutes. Stain was removed, and the plates rinsed by immersion in deionized water and air-dried. To release stain from the cells 100 microliters of solubilization solution was added (1% N-lauroyl sarcosine, Sodium salt, Sigma L5125, in PBS), and plates were shaken gently for about 30 minutes. Optical density at 620 nm was measured on a microplate reader. Percent inhibition of cell growth was calculated relative to vehicle treated control wells. Concentration of compound that inhibits 50% of control cell growth (IC50) was interpolated using nonlinear regression (Levenberg-Marquardt) and the equation, y=Vmax*(1−(x/(K+x)))+Y2, where “K” was equal to the IC50. Method B: Celltiter Glo® Growth Inhibition Assays

[3] = system: Colo205 tumor cell lines; test: as above; format: cell-based; details: Homo sapiens, COLO 205, 72 h, Table 3, Method A methylene blue, 3 days
Description: as §1

[4] = system: BT474 and HN5 tumor cell lines; test: Celltiter Glo growth inhibition assay (cellular Method B); format: cell-based; details: Homo sapiens, BT-474, 72 h; Table 2, Method B Celltiter Glo, 3 days; class over BT474 and HN5;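 also: class counts the more potent of the two cell lines (BT474 or HN5)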
Procedure, shortened: (§2)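 BT474, HN5 and Colo205 cells were each grown in their own 10% FBS medium, then exposed to compound for 3 days at 37 °C with 0.3% final DMSO. Growth was read by CellTiter-Glo luminescence as percent inhibition versus vehicle, and IC50 was interpolated by nonlinear regression.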

[5] = system: Colo205 tumor cell lines; test: as above; format: cell-based; details: Homo sapiens, COLO 205, 72 h, Table 3, Method B Celltiter Glo, 3 days
Procedure, shortened: as §2

O=C(Cc1cccs1)Nc1cccc(-c2nn3ccccc3c2-c2ccnc(Nc3cccc(-c4cnco4)c3)n2)c1 [Example 1, N-{3-[3-(2-{[3-(1,3-oxazol-5-yl)phenyl]amino}-4-pyrimidinyl)pyrazolo[1,5-a]pyridin-2-yl]phenyl}-2-(2-thienyl)acetamide]
Activity (Method) [1]: +++ (B) (at least one pIC50 measurement of greater than 7 against either ErbB2 or EGFR) | IC50 [2]: 100 to 1000 nM | IC50 [3]: 100 to 1000 nM

CN(C)CCCNc1ccc(Nc2nccc(-c3c(-c4cccc(NC(=O)Cc5cccs5)c4)nn4ccccc34)n2)cc1F [Example 2, N-[3-(3-{2-[(4-{[3-(Dimethylamino)propyl]amino}-3-fluorophenyl)amino]-4-pyrimidinyl}pyrazolo[1,5-a]pyridin-2-yl)phenyl]-2-(2-thienyl)acetamide]
Activity (Method) [1]: +++ (B) (at least one pIC50 measurement of greater than 7 against either ErbB2 or EGFR) | IC50 [2]: < 100 nM | IC50 [3]: 100 to 1000 nM

O=C(Cc1cccs1)Nc1cccc(-c2nn3ccccc3c2-c2ccnc(Nc3cccc(F)c3)n2)c1 [Example 9, N-[3-(3-{2-[(3-Fluorophenyl)amino]-4-pyrimidinyl}pyrazolo[1,5-a]pyridin-2-yl)phenyl]-2-(2-thienyl)acetamide]
Activity (Method) [1]: +++ (B) (at least one pIC50 measurement of greater than 7 against either ErbB2 or EGFR) | IC50 [2]: > 1000 nM | IC50 [3]: > 1000 nM

O=C(Cc1cccs1)Nc1cccc(-c2nn3ccccc3c2-c2ccnc(Nc3cccc(OCCN4CCCC4)c3)n2)c1 [Example 10, N-[3-(3-{2-[(3-{[2-(1-Pyrrolidinyl)ethyl]oxy}phenyl)amino]-4-pyrimidinyl}pyrazolo[1,5-a]pyridin-2-yl)phenyl]-2-(2-thienyl)acetamide]
Activity (Method) [1]: +++ (B) (at least one pIC50 measurement of greater than 7 against either ErbB2 or EGFR) | IC50 [2]: 100 to 1000 nM | IC50 [3]: 100 to 1000 nM

O=C(Cc1cccs1)Nc1cccc(-c2nn3ccccc3c2-c2ccnc(Nc3cccc(OCCCN4CCOCC4)c3)n2)c1 [Example 11, N-[3-(3-{2-[3-{[3-(4-Morpholinyl)propyl]oxy}phenylamino]-4-pyrimidinyl}pyrazolo[1,5-a]pyridin-2-yl)phenyl]-2-(2-thienyl)acetamide]
Activity (Method) [1]: +++ (B) (at least one pIC50 measurement of greater than 7 against either ErbB2 or EGFR) | IC50 [2]: 100 to 1000 nM | IC50 [3]: 100 to 1000 nM

CN(C)CCCOc1cccc(Nc2nccc(-c3c(-c4cccc(NC(=O)Cc5cccs5)c4)nn4ccccc34)n2)c1 [Example 12, N-[3-(3-{2-[(3-{[3-(Dimethylamino)propyl]oxy}phenyl)-amino]-4-pyrimidinyl}pyrazolo[1,5-a]pyridin-2-yl)phenyl]-2-(2-thienyl)acetamide]
Activity (Method) [1]: +++ (B) (at least one pIC50 measurement of greater than 7 against either ErbB2 or EGFR) | IC50 [2]: 100 to 1000 nM | IC50 [3]: 100 to 1000 nM

O=C(Cc1cccs1)Nc1cccc(-c2nn3ccccc3c2-c2ccnc(Nc3cccc(OCCCN4CCCC4)c3)n2)c1 [Example 13, N-[3-(3-{2-[(3-{[3-(1-Pyrrolidinyl)propyl]oxy}phenyl)amino]-4-pyrimidinyl}pyrazolo[1,5-a]pyridin-2-yl)phenyl]-2-(2-thienyl)acetamide]
Activity (Method) [1]: +++ (B) (at least one pIC50 measurement of greater than 7 against either ErbB2 or EGFR) | IC50 [2]: 100 to 1000 nM | IC50 [3]: 100 to 1000 nM

CCN(CC)CCOc1cccc(Nc2nccc(-c3c(-c4cccc(NC(=O)Cc5cccs5)c4)nn4ccccc34)n2)c1 [Example 14, N-[3-(3-{2-[(3-{[2-(Diethylamino)ethyl]oxy}phenyl)amino]-4-pyrimidinyl}pyrazolo[1,5-a]pyridin-2-yl)phenyl]-2-(2-thienyl)acetamide]
Activity (Method) [1]: +++ (B) (at least one pIC50 measurement of greater than 7 against either ErbB2 or EGFR) | IC50 [2]: 100 to 1000 nM | IC50 [3]: 100 to 1000 nM

CN(C)CCOc1cccc(Nc2nccc(-c3c(-c4cccc(NC(=O)Cc5cccs5)c4)nn4ccccc34)n2)c1 [Example 15, N-[3-(3-{2-[(3-{[2-(Dimethylamino)ethyl]oxy}phenyl)amino]-4-pyrimidinyl}pyrazolo[1,5-a]pyridin-2-yl)phenyl]-2-(2-thienyl)acetamide]
Activity (Method) [1]: +++ (B) (at least one pIC50 measurement of greater than 7 against either ErbB2 or EGFR) | IC50 [2]: 100 to 1000 nM | IC50 [3]: 100 to 1000 nM

O=C(Cc1cccs1)Nc1cccc(-c2nn3ccccc3c2-c2ccnc(Nc3ccc4c(c3)CNCC4)n2)c1 [Example 16, N-(3-{3-[2-(1,2,3,4-Tetrahydro-7-isoquinolinylamino)-4-pyrimidinyl]pyrazolo[1,5-a]pyridin-2-yl}phenyl)-2-(2-thienyl)acetamide]
Activity (Method) [1]: +++ (B) (at least one pIC50 measurement of greater than 7 against either ErbB2 or EGFR) | IC50 [2]: 100 to 1000 nM | IC50 [3]: 100 to 1000 nM

Cc1ccc(-c2nn3ccccc3c2-c2ccnc(Nc3cc(OCCN(C)C)ccc3C)n2)cc1NC(=O)Cc1cccs1 [Example 57, N-[5-(3-{2-[(5-{[2-(Dimethylamino)ethyl]oxy}-2-methylphenyl)amino]-4-pyrimidinyl}pyrazolo[1,5-a]pyridin-2-yl)-2-methylphenyl]-2-(2-thienyl)acetamide]
Activity (Method) [1]: ++ (B) (at least one pIC50 measurement greater than 6 against either ErbB2 or EGFR but no measurement greater than pIC50 of 7) | IC50 [4]: > 1000 nM | IC50 [5]: > 1000 nM

Cc1ccc(-c2nn3ccccc3c2-c2ccnc(Nc3cccc(OCCN(C)C)c3)n2)cc1NC(=O)Cc1cccs1 [Example 58, N-[5-(3-{2-[(3-{[2-(Dimethylamino)ethyl]oxy}phenyl)amino]-4-pyrimidinyl}pyrazolo[1,5-a]pyridin-2-yl)-2-methylphenyl]-2-(2-thienyl)acetamide]
Activity (Method) [1]: ++ (B) (at least one pIC50 measurement greater than 6 against either ErbB2 or EGFR but no measurement greater than pIC50 of 7) | IC50 [4]: 100 to 1000 nM | IC50 [5]: 100 to 1000 nM

Cc1ccc(-c2nn3ccccc3c2-c2ccnc(Nc3ccc4c(c3)CN(C)CC4)n2)cc1NC(=O)Cc1cccs1 [Example 59, N-[2-Methyl-5-(3-{2-[(2-methyl-1,2,3,4-tetrahydro-7-isoquinolinyl)amino]-4-pyrimidinyl}pyrazolo[1,5-a]pyridin-2-yl)phenyl]-2-(2-thienyl)acetamide]
Activity (Method) [1]: ++ (B) (at least one pIC50 measurement greater than 6 against either ErbB2 or EGFR but no measurement greater than pIC50 of 7) | IC50 [4]: 100 to 1000 nM | IC50 [5]: > 1000 nM

O=C(Cc1cccs1)Nc1cc(-c2nn3ccccc3c2-c2ccnc(Nc3cccc(CN4CCCC4)c3)n2)ccc1F [Example 61, N-{2-Fluoro-5-[3-(2-{[3-(1-pyrrolidinylmethyl)phenyl]amino}-4-pyrimidinyl)pyrazolo[1,5-a]pyridin-2-yl]phenyl}-2-(2-thienyl)acetamide]
Activity (Method) [1]: ++ (B) (at least one pIC50 measurement greater than 6 against either ErbB2 or EGFR but no measurement greater than pIC50 of 7) | IC50 [4]: 100 to 1000 nM | IC50 [5]: 100 to 1000 nM

Cc1ccc(OCCN(C)C)cc1Nc1nccc(-c2c(-c3ccc(F)c(NC(=O)Cc4cccs4)c3)nn3ccccc23)n1 [Example 62, N-[5-(3-{2-[(5-{[2-(Dimethylamino)ethyl]oxy}-2-methylphenyl)amino]-4-pyrimidinyl}pyrazolo[1,5-a]pyridin-2-yl)-2-fluorophenyl]-2-(2-thienyl)acetamide]
Activity (Method) [1]: + (B) (no pIC50 measurement greater than 6 against either ErbB2 or EGFR) | IC50 [4]: > 1000 nM | IC50 [5]: 100 to 1000 nM
